Consider 9 compounds from patent EP0037516A1, “N-omega substituted derivatives of 1-Desamino-vasopressin analogs” (VEGA LABORATORIES, INC., priority 1980, dated 1981).

Marks after values point to notes of the source that are not given here. Where a SMILES comes first, the peptide text is derived from it. Bridges are numbered along the chain shown (N, C = ends). Side-chain parts run from the residue outwards. [ ]: non-standard residue; d: D form. Mpa = O=C(O)CCS

Test [1] in a line: Pressor assay in rats, calibrated against arginine-vasopressin. Format: in vivo, male Sprague-Dawley rats. As to conditions: for Peak Potency (pressor activity): 200g male Sprague-Dawley rats, calibrated against arginine-vasopressin; for Mean Peak Potency (Product) F: pressor activity, peak potency multiplied by F; for Ratio of Half-Life of Compound to Parent Half-Life (F): pressor response; for pressor activity (in words): comment on Table 3.

Test [2] can be described thus: Antidiuretic assay in rats, calibrated against arginine-vasopressin. To be noted: for Peak Potency (antidiuretic activity): 200g male Sprague-Dawley rats, calibrated against arginine-vasopressin; for Mean Peak Potency (Product) F: antidiuretic activity, peak potency multiplied by F; for Ratio of Half-Life of Compound to Parent Half-Life (F): antidiuretic response, comparator not given; for antidiuretic activity (in words): comment on Table 4. Format: in vivo, male Sprague-Dawley rats.

Test [3] concerns Factor VIII. Briefly: Factor VIII release, clotting assay in male canine citrated plasma. Format: in vivo. To be noted: male canine citrated plasma; calibrated against desmopressin. Here is the method: Pressor and antidiuretic assays of the compounds of Examples I-IV were carried out in 200g body weight, male Sprague-Dawley rats using the techniques reported by Schaechtelin et al in "Enhancement of the Activity of Angiotensin II by Certain Cations," Molec. Pharmacol., 10, 57-67 (1974) and Cort et al in "Role of the Disulfide Bridge and the C-Terminal Tripeptide in the Anti-diuretic Action of Vasopressin in Man and the Rat", Kidney Internat. , 8, 292-302 (1975), with calibration of responses against a 3-point curve using highly purified arginine-vasopressin of known activity. Similar tests were performed on known vasopressin analogs for purposes of comparison. In addition, the release of Factor VIII by the compounds of Examples I-IV was tested in male canine citrated plasna using the clotting assay described by Prowse et al, in Brit. J. Haematol., 41, 437 (1979), and the results were calibrated against the Factor VIII releasing activity of desmopressin. In all cases, the half-lives of the responses were compared to the standard at equi-peak-potent levels.

The subject of test [4] is Factor VIII. Briefly: Factor VIII releasing activity in pentothal-anesthetized dogs, standard clotting assay. Format: in vivo. As to conditions: dogs. Here is the method:
The 9-Ala-NH2 analogs of Examples XII and XIII were evaluated for ability to stimulate production of Factor VIII by administration to pentothal-anesthestized dogs. These analogs, as well as desmopressin used as a control, were administered i.v. into the external jugular vein at a dose of 10 meg/kg body weight. Factor VIII analysis was performed by standard clotting assay (using normal dog plasma as 100% clotting and severely hemophilic dog plasma as 0% for the standard curve) just prior to injection, and at periodic intervals for up to 4 hours after injection.

[5] abbreviates: as compared to [2-Phe,8-Lys]-vasopressin.
Where [6] appears, read: as compared to [8-Lys]-vasopressin (footnote *).
[7] abbreviates: Pre-Injection, normal dog plasma = 100% clotting.
Where [8] appears, read: no comparator footnote (parent itself).

As for `NCCCC[C@H](NC(=O)[C@@H]1CCCN1C(=O)[C@@H]1CSSCCC(=O)N[C@@H](Cc2ccccc2)C(=O)N[C@@H](Cc2ccccc2)C(=O)N[C@@H](CCC(N)=O)C(=O)N[C@@H](CC(N)=O)C(=O)N1)C(=O)NCC(N)=O` [1-desamino-[2-Phe, 8-Lys]-vasopressin, 1-desamino-[2-Phe, 8-Lys]vasopressin, reference compound] ([Mpa]FFQNCPKG-NH2; disulfide 1-6), in test [1], the “Peak Potency (pressor activity)” value was 45 IU/mg and the “Mean Peak Potency (Product) F” value is recorded as 67.5. In test [1] (setting [5]), the “Ratio of Half-Life of Compound to Parent Half-Life (F)” value (“Ratio of Half-Life of Compound” for short) is 1.5**. In test [2], the “Peak Potency (antidiuretic activity)” value is on record as 30 IU/mg, the “Mean Peak Potency (Product) F” value is recorded as 45 and the “Ratio of Half-Life of Compound” value is reported as 1.5.
In the case of `NCCCC[C@H](NC(=O)[C@@H]1CCCN1C(=O)[C@@H]1CSSCCC(=O)N[C@@H](Cc2ccc(O)cc2)C(=O)N[C@@H](Cc2ccccc2)C(=O)N[C@@H](CCC(N)=O)C(=O)N[C@@H](CC(N)=O)C(=O)N1)C(=O)NCC(N)=O` [1-desamino-[8-Lys]-vasopressin, reference compound], in test [1], the “Peak Potency (pressor activity)” value worked out at 126 IU/mg and the “Mean Peak Potency (Product) F” value turned out to be 189. Moreover, the “Ratio of Half-Life of Compound” value in test [1] (setting [6]) was 1.5*. Further, in test [2], the “Peak Potency (antidiuretic activity)” value was 300 IU/mg, the “Mean Peak Potency (Product) F” value worked out at 450 and the “Ratio of Half-Life of Compound” value came out at 1.5.
With `NCC(=O)NCCCC[C@H](NC(=O)[C@@H]1CCCN1C(=O)[C@@H]1CSSCCC(=O)N[C@@H](Cc2ccccc2)C(=O)N[C@@H](Cc2ccccc2)C(=O)N[C@@H](CCC(N)=O)C(=O)N[C@@H](CC(N)=O)C(=O)N1)C(=O)NCC(N)=O` [Example I, l-Desamino-[2-Phe, 8-N^ε-Lys(Gly)]-Vasopressin] ([Mpa]FFQNCPK(Gly)G-NH2; disulfide 1-6), in test [1], the “Peak Potency (pressor activity)” value was determined as 6.9 IU/mg, the “pressor activity (in words)” value was “prolonged pressor activity of higher potency than that of tGLVP” and the “Mean Peak Potency (Product) F” value was 60. Moreover, in test [1] (setting [5]), the “Ratio of Half-Life of Compound” value is 8.7**. In addition, in test [2], the “Peak Potency (antidiuretic activity)” value was 6 IU/mg, the “Mean Peak Potency (Product) F” value is recorded as 24, the “Ratio of Half-Life of Compound” value is 4.0 and the “antidiuretic activity (in words)” value is reported as “low antidiuretic activity”. Further, the “Factor VIII Releasing Activity” value in the test on Factor VIII [3] came out at 101%.
As to `NCC(=O)NCC(=O)NCC(=O)NCCCC[C@H](NC(=O)[C@@H]1CCCN1C(=O)[C@@H]1CSSCCC(=O)N[C@@H](Cc2ccc(O)cc2)C(=O)N[C@@H](Cc2ccccc2)C(=O)N[C@@H](CCC(N)=O)C(=O)N[C@@H](CC(N)=O)C(=O)N1)C(=O)NCC(N)=O` [Example II, 1-Desamino-[8-N^ε-Lys(Gly-Gly-Gly)]-Vasopressin], in test [1], the “Peak Potency (pressor activity)” value is 15 IU/mg, the “pressor activity (in words)” value was “prolonged pressor activity of higher potency than that of tGLVP” and the “Mean Peak Potency (Product) F” value is given as 157.5. The “Ratio of Half-Life of Compound” value in test [1] (as compared to 1-desamino-[8-Lys]-vasopressin (footnote ***)) was 10.5***. In test [2], the “Peak Potency (antidiuretic activity)” value was 8 IU/mg, the “Mean Peak Potency (Product) F” value worked out at 44, the “Ratio of Half-Life of Compound” value is listed as 5.5 and the “antidiuretic activity (in words)” value is reported as “low antidiuretic activity”. In addition, the “Factor VIII Releasing Activity” value with Factor VIII [3] is given as 104%.
As to `C[C@@H](NC(=O)[C@H](CCCCNC(=O)CNC(=O)CNC(=O)CN)NC(=O)[C@@H]1CCCN1C(=O)[C@@H]1CSSCCC(=O)N[C@@H](Cc2ccc(O)cc2)C(=O)N[C@@H](Cc2ccccc2)C(=O)N[C@@H](CCC(N)=O)C(=O)N[C@@H](CC(N)=O)C(=O)N1)C(N)=O` [Example XII, 1-Desamino-[8-N^9-Lys(Gly-Gly-Gly), 9-D-Ala]-vasopressin] ([Mpa]YFQNCPK([Gly-Gly-Gly])[dA]-NH2; disulfide 1-6), the “Factor VIII Releasing Activity” value is 110% with Factor VIII [4] (15 min. after i.v. 10 meg/kg); 165% in the test on Factor VIII [4] (60 min. after i.v. 10 meg/kg); 185% in the test on Factor VIII [4] (120 min. after i.v. 10 meg/kg); 220% in the test on Factor VIII [4] (240 min. after i.v. 10 meg/kg); 100% with Factor VIII [4] (setting [7]).
`C[C@H](NC(=O)[C@@H](CCCCNC(=O)CNC(=O)CNC(=O)CN)NC(=O)[C@@H]1CCCN1C(=O)[C@@H]1CSSCCC(=O)N[C@@H](Cc2ccc(O)cc2)C(=O)N[C@@H](Cc2ccccc2)C(=O)N[C@@H](CCC(N)=O)C(=O)N[C@@H](CC(N)=O)C(=O)N1)C(N)=O` [Example XIII, 1-Desamino-[Q-D-NE-Lys(Gly-Gly-Gly), 9-Ala-NH2]-vasopressin] ([Mpa]YFQNCP[dK]([Gly-Gly-Gly])A-NH2; disulfide 1-6): the “Factor VIII Releasing Activity” value came to 115% in the test with Factor VIII [4] (15 min. after i.v. 10 meg/kg); 153% in the test on Factor VIII [4] (60 min. after i.v. 10 meg/kg); 175% with Factor VIII [4] (120 min. after i.v. 10 meg/kg); 210% in the test on Factor VIII [4] (240 min. after i.v. 10 meg/kg); 105% in the test on Factor VIII [4] (setting [7]).
As for `NCCCC[C@H](NC(=O)[C@@H]1CCCN1C(=O)[C@@H]1CSSC[C@H](N)C(=O)N[C@@H](Cc2ccccc2)C(=O)N[C@@H](Cc2ccccc2)C(=O)N[C@@H](CCC(N)=O)C(=O)N[C@@H](CC(N)=O)C(=O)N1)C(=O)NCC(N)=O` [[2-Phe, 8-Lys]-vasopressin, reference compound] (H-CFFQNCPKG-NH2; disulfide 1-6), in test [1], the “Peak Potency (pressor activity)” value was 80 IU/mg and the “Mean Peak Potency (Product) F” value is 80. The “Ratio of Half-Life of Compound” value in test [1] (setting [8]) came to 1.0. Moreover, in test [2], the “Peak Potency (antidiuretic activity)” value stood at 25 IU/mg, the “Mean Peak Potency (Product) F” value is on record as 25 and the “Ratio of Half-Life of Compound” value came to 1.0.
For `NCCCC[C@H](NC(=O)[C@@H]1CCCN1C(=O)[C@@H]1CSSC[C@H](N)C(=O)N[C@@H](Cc2ccc(O)cc2)C(=O)N[C@@H](Cc2ccccc2)C(=O)N[C@@H](CCC(N)=O)C(=O)N[C@@H](CC(N)=O)C(=O)N1)C(=O)NCC(N)=O` [[8-Lys]-vasopressin, reference compound], in test [1], the “Peak Potency (pressor activity)” value is 220 IU/mg and the “Mean Peak Potency (Product) F” value is 220. For the same compound, the “Ratio of Half-Life of Compound” value in test [1] (setting [8]) is given as 1.0. For the same compound, in test [2], the “Peak Potency (antidiuretic activity)” value is listed as 200 IU/mg, the “Mean Peak Potency (Product) F” value is given as 220 and the “Ratio of Half-Life of Compound” value is reported as 1.0.
Turning to `NCCCC[C@H](NC(=O)[C@@H]1CCCN1C(=O)[C@@H]1CSSC[C@H](NC(=O)CNC(=O)CNC(=O)CN)C(=O)N[C@@H](Cc2ccc(O)cc2)C(=O)N[C@@H](Cc2ccccc2)C(=O)N[C@@H](CCC(N)=O)C(=O)N[C@@H](CC(N)=O)C(=O)N1)C(=O)NCC(N)=O` [tGLVP, N^c<-glycyl-glycyl-glycyl-8-lysine-vasopressin, reference compound] (H-GGGCYFQNCPKG-NH2; disulfide 4-9), in test [1], the “Peak Potency (pressor activity)” value stood at 2.1 IU/mg and the “Mean Peak Potency (Product) F” value stood at 8.4. Further, the “Ratio of Half-Life of Compound” value in test [1] (setting [6]) is given as 4.0*. In test [2], the “Peak Potency (antidiuretic activity)” value came out at 1.1 IU/mg, the “Mean Peak Potency (Product) F” value was 9.2 and the “Ratio of Half-Life of Compound” value was 4.0.
